The values below come from patent US10668034B2, “Pharmaceutical compositions and the treatment of overactive bladder” (Velicept Therapeutics, Inc., priority 2010, dated 2020).

Test [1] relates to urinary bladder strips from rats. Briefly: EFS-induced contractions of rat urinary bladder strips (Example 2). The format is cell-based. The note with it: for EC50: EFS-induced contractions, read-out: EC50 for inhibiting bladder contraction. As for the experimental part:
In order to investigate a possible pharmacological synergy on the combination of the muscarinic and the beta receptor pathways, the combination of the muscarinic antagonist oxybutynin and the beta-3 adrenoceptor agonist CL-316,243 (a very selective and potent rodent β3-AR agonist) was tested on EFS (electrical field stimulation)-induced responses in urinary bladder strips from rats.
Longitudinal strips of rat detrusor muscle were suspended in organ bath chambers containing oxygenated Krebs solution (pH 7.4, gassed with 95% O2 and 5% CO2 at 37° C.). Prazosin (1 μM) was added to the Krebs solution in order to block al-adrenoceptors. Bladder responses were measured using isometric transducers and recorded using a data acquisition system. Tissues were allowed to equilibrate under a resting tension of 1.0 g for 60 min. Following the equilibration period, strips were exposed to KCl (80 mM) to measure their viability. Tissues were washed and equilibrated for another 45 min period. Bladder strips were then subjected to EFS using the following parameters: maximal current 800 mA, frequency of 15 Hz, square pulse of 0.1 ms, trains of 4 s every 2 min. After approximately 15 min (when EFS contractions had stabilized), the selective β2-adrenoceptor antagonist ICI-118551 (30 nM) was incubated for 15 min. After stabilization of the contractile response, a concentration response curve was obtained for each bladder strip by adding CL-316,243 or oxybutynin (1 nM to 10 μM) (or corresponding vehicle) in log unit concentration increments.
In a second series of experiments, a single concentration of oxybutynin at 10 nM (determined from the first series of experiments) was added to organ bath chambers followed by various doses of CL-316,243 to provide a concentration-response curve for CL-316,243.

The subject of test [2] is isolated rat urinary bladder strips. In words: EFS-induced contractions of rat isolated urinary bladder strips, beta-3 agonist with or without 10 nM antimuscarinic (Example 3). Format: cell-based. On the procedure:
In this study various combinations of β3-adrenoceptor agonists and antimuscarinics were tested in isolated rat urinary bladder strips. Urinary bladder smooth muscle strips were obtained from female rats (Sprague-Dawley strain, body weight 240-360 g). Two strips per bladder were prepared and connected to tension transducers in 5 ml organ baths containing Krebs-Henseleit solution (kept at 37° C., pH 7.4, gassed with 95% O2/5% CO2). Prazosin (1 μM) was added to the Krebs solution in order to block al-adrenoceptors. Strips were equilibrated for at least 60 min at 1.0 g resting tension, during which tissues were washed every 15 min. Then, each strip was exposed to 80 mM KCl to verify its viability. After another 45 min wash-out period, strips were subjected to EFS (electrical field stimulation parameters: constant current 800 mA; frequency of 15 Hz; square pulse of 0.1 ms, train of 4 s every 2 min). […] Cumulative concentrations of solabegron (10 nM-10 μM), mirabegron (10 nM-10 μM) and CL-316,243 (1 nM-10 μM) were then added in half-log increments. At the end of CRC's, 10 μM forskolin (FSK) was added to determine maximal relaxation (FIG. 1). […] Each CRC was fit using non-linear regression (GraphPad Prism® software) to obtain Emax and pIC50 (−log IC50) values. Mean CRCs for vehicle and treated strips were fit in parallel and statistically compared. The first fit was used to compare Emax values and when these values were not statistically different, a second fit was performed, sharing Emax, in order to obtain pIC50 values for each pair of curves. Differences were considered statistically significant when the null hypothesis could be rejected at a risk a of less than 0.05.

Test [3] has as its system muscarinic receptor subtypes M1, M2, M3, M4 and M5. Conditions: cited from earlier work.
A short description of test [4]: Drug interaction study, post void residual (PVR) volume by bladder ultrasound. Format: in vivo, human. On the procedure: A drug interaction study was conducted in healthy human volunteers, using repeat oral doses of solabegron and oxybutynin administered singly as well as in combination with each other, in order to assess the effects on pharmacokinetic and pharmacodynamic parameters, as measured by post void residual (PVR) volumes. PVR was measured in subjects treated with each agent alone as well as in combination at steady-state. The study was a two-cohort randomized, open label, repeat dose, 3-way crossover study in healthy adult subjects. Two marketed formulations of oxybutynin were used in the study: i) Ditropan IR®, which is immediate release (IR) oxybutynin; and ii) Ditropan XL® which is extended release (XL) oxybutynin. The total daily dose given was 20 mg. Solabegron was administered as tablets. […] Each study session was separated by a washout period of at least 5 days. Safety assessments included vital signs, ambulatory blood pressure monitoring (ABPM) physical examinations, clinical laboratory safety tests, 12-lead ECGs, PVR volume, to assess the potential for urinary retention, and adverse events. […] Bladder ultrasound scans to measure PVR volumes were conducted on Day-1 (one day prior to the dosing period) and Day 6 (sixth day of the dosing period) of each study session.

Where [5] appears, read: in the presence of oxybutynin (10 nM).
Where [6] appears, read: in the presence of 10 nM oxybutynin.
[7] abbreviates: in the presence of 10 nM tolterodine.
Where [8] appears, read: in the presence of 10 nM solifenacin.

By EC50 is commonly meant the concentration at which the effect is half-maximal.

Like-named read-outs stand apart in the source and are kept apart here.

As to `C[C@H](Cc1ccc2c(c1)OC(C(=O)[O-])(C(=O)[O-])O2)NC[C@H](O)c1cccc(Cl)c1.[Na+].[Na+]` [CL-316,243], in test [1] (CL-316,243 alone), the “Maximal inhibition of EFS-induced contractions” value is on record as 65% and the 50% effective concentration (EC50) came to 7.2 nM. In test [1] (in the presence of a minimally effective dose of oxybutynin (10 nM)), the “Shift to the left of concentration-response curve” value was around 3.5 fold. In test [1] (setting [5]), the “Maximal inhibition of EFS-induced contractions” value was determined as 80% and the EC50 worked out at 2.1 nM. In test [2] (setting [6]), the “Emax of beta-3 agonist vs vehicle (in words)” value (from here on “Emax … vs vehicle (in words)”) is recorded as “significantly increased” and the “IC50 of beta-3 agonist vs vehicle (in words)” value (“IC50 … vs vehicle (in words)” below) was “significantly decreased”. Further, in test [2] (setting [7]), the “Emax … vs vehicle (in words)” value is “significantly increased”.
On to `Nc1nc(CC(=O)Nc2ccc(CCNC[C@H](O)c3ccccc3)cc2)cs1` [mirabegron], for which the “IC50 … vs vehicle (in words)” value in test [2] (setting [6]), in test [2] (setting [8]) and in test [2] (setting [7]) was “significantly lower” throughout. Also, the “Emax … vs vehicle (in words)” value in test [2] (setting [7]) was “appeared to be increased”.
As for `CCN(CC)CC#CCOC(=O)C(O)(c1ccccc1)C1CCCCC1` (stereo not shown) [oxybutynin, 4-diethylaminobut-2-ynyl 2-cyclohexyl-2-hydroxy-2-phenyl-ethanoate], in test [1] (oxybutynin at a concentration of 10 nM, first series of experiments), the “Effect of oxybutynin alone on EFS-induced responses (in words)” value is “minimal contraction”. In test [3], the “Discrimination between M3 and M1/M4 subtypes (in words)” value is recorded as “do not distinguish”; the “Selectivity for M3 over the M2/M5 subtypes” value is reported as around 10 fold.
In the case of `O=C(O)c1cccc(-c2cccc(NCCNC[C@H](O)c3cccc(Cl)c3)c2)c1` [solabegron, 3′-[(2-{[(2R)-2-(3-chlorophenyl)-2-hydroxyethyl]amino}ethyl)amino]biphenyl-3-carboxylic acid], the “Mean increase from baseline in PVR volume” value in test [4] (healthy human subjects, repeat oral doses for 5 days, Day 6 vs Day-1, solabegron 200 mg BID, oxybutynin IR 5 mg QID, oxybutynin XL 10 mg BID) was 4.4 mL. Besides, the “Changes in PVR volume (in words)” value in test [4] (healthy subjects) is listed as “minimal changes”. Also, the “Emax … vs vehicle (in words)” value in test [2] (setting [6]), in test [2] (setting [8]) and in test [2] (setting [7]) was “significantly increased” each time. The “IC50 … vs vehicle (in words)” value in test [2] (setting [6]) and in test [2] (setting [7]) was “significantly lower” in each case.
`O=C(O[C@H]1CN2CCC1CC2)N1CCc2ccccc2[C@@H]1c1ccccc1` [solifenacin]: in test [3], the “Discrimination between M3 and M1/M4 subtypes (in words)” value is on record as “do not distinguish”; the “Selectivity for M3 over the M2/M5 subtypes” value is listed as around 10 fold.
For the molecule `Cc1ccc(O)c([C@H](CCN(C(C)C)C(C)C)c2ccccc2)c1` [tolterodine], the “Discrimination between the five muscarinic subtypes (in words)” value in test [3] is “does not discriminate between the five subtypes”.
